Reference: paper PMC12748266, “Testing antimicrobial peptides inhibiting protein synthesis in living E. coli and K. pneumoniae using bio-orthogonal non-canonical amino-acid tagging” (Frontiers in Microbiology, 2025)
Converted amounts (≈) assume the structure as drawn. Where two headings read alike, the source gives them in different places. No end group written: not given here.

Tests used:
Type in all cases: cell-based, Escherichia coli
E. coli ATCC 25922 [1] = experiment: microbe, parasite or virus in culture; conditions: for MIC: read-out: MIC
Procedure: […] Each peptide, diluted at a starting concentration of 128 μM in supplemented M9 medium was added to the first column of wells of a 96-well round-bottom microplate (Sarstedt, Milan, Italy). Serially two-fold dilution (1:1) were performed across subsequent wells to a final volume of 50 μL. 50 μL of bacterial suspension (1 × 10^7 CFU/mL) were then added to each well, to a final bacterial concentration in each well to 5 × 10^6 CFU/mL per well. Untreated bacterial culture was used as growth control, while 100 μL of uninoculated supplemented M9 medium was used to verify the sterility of the medium. The plates were sealed with parafilm to minimize evaporation and incubated at 37 °C for 18 h. The minimum inhibitory concentration (MIC) was visually determined as the lowest peptide concentration in a well with no visible bacterial growth. Data are reported as the mode of at least three independent experiments.

E. coli ATCC 25922 [2] = experiment: Cell membrane permeabilization, propidium iodide flow cytometry; conditions: compound at its MIC, 40 min, 5 × 10^6 CFU/mL, supplemented M9, mean of n = 3
Procedure: Membrane permeabilization of bacteria was then assessed by incubating bacteria at 37 °C, in a final volume of 1 mL, with varying concentrations of each peptide or antibiotic used for the BONCAT assay. 5 min before the ending of the selected incubation time (40 min), propidium iodide probe was added to the samples to a final concentration of 10 μg/mL before analysis using a flow cytometer. A positive control consisted of E. coli cells dehydrated with ethanol (as described above), while untreated cells were used as negative control. The fluorescence of untreated cells was used to establish the gating for positive PI-stained cells. Fixed bacterial cells, subjected to the click chemistry reaction to link the Alexa Fluor azide 488 probe, were analysed by flow cytometry and, among the gates-selected ones, only those that tested positive for Propidium Iodide, and thus permeabilized, were considered for the calculation of the mean fluorescence intensity (MFI) of the Alexa Fluor azide 488.
Samples were analyzed by an Attune NxT® (ThermoFisher) equipped with a blue laser (488 nm) and photomultiplier tubes (PMTs) BL1 (525/50) and BL3 (695/40) to collect fluorescence. All parameters were set in logarithmic scale and the signals were recorded as Area. Forward scattering (FSC) was set to 300 mV, side scattering (SSC) to 350 mV and thresholds to 0.2 for FSC and 0.5 for SSC. The compensation matrix was performed according to the tool software. Hierarchical gates and acquisition flow rate (200 μL/min) were set to avoid coincident events. The files were saved as FCS 3.1 and analysed by FCS Express De Novo software v7. Flow cytometry data are presented as means ± SD from three independent experiments (n = 3).

E. coli ATCC 25922 [3] = experiment: Post-antibiotic effect (PAE), growth kinetics after washout; conditions: 30 min treatment at MIC
Procedure: An overnight culture of E. coli ATCC 25922, prepared as described above, was diluted to a final concentration of 5 × 10^6 CFU/mL and then incubated at 37 °C for 30 min in the presence or absence of each peptide or antibiotic at various concentrations, with a final volume of 1 mL. To measure the post-antibiotic effect (PAE) of antimicrobials, the compounds were removed from the supernatant by centrifugation (16,000 × g for 5 min) and bacteria were washed and resuspended in 1 mL of fresh supplemented MHB medium, to promote faster growth visible as increased absorbance. 200 μL of each sample was then transferred to a 96-well round-bottom microplate (Sarstedt, Milan, Italy), which was then placed in a Nanoquant Infinite-M200Pro plate reader with stable temperature at 37 °C. Each sample was surrounded by water-filled wells to reduce its own evaporation. Optical density at 600 nm was then recorded for each sample every hour for up to 18 h. PAE was calculated according to [Holfeld et al. (2018)] as the difference between the time needed for a cell culture incubated with an antibiotic substance to reach half-maximum absorbance of the control culture and the time that the control culture needed to reach half-maximum absorbance of the stationary phase. According to this definition, the PAE of each compound (expressed as time) was calculated based on the OD₆₀₀ value of its respective replicate, which corresponded to half of the maximum absorbance reached by the control culture in the stationary phase (at 18 h). The mean PAE values (PAE in hours) of each compound, were obtained by averaging the times from the three independent experiments.

[4] = OD600 every hour for 18 h in MHB, mean ± SD, n = 3
[5] = Escherichia coli, ATCC25922, 18 h, supplemented M9 medium, 5 × 10^6 CFU/mL, 18 h, 37 °C, visual, mode of at least three experiments

Row | Compound | MIC (E. coli ATCC 25922 [1]; ATCC 25922, 18 h) | Membrane permeabilization (% PI +cells) (E. coli ATCC 25922 [2]) | PAE (E. coli ATCC 25922 [3]) | PAE (E. coli ATCC 25922 [3]; [4]) | MIC (E. coli ATCC 25922 [1]; Mueller Hinton, 2,5x10^5 CFU/mL, 18 h, 37 °C, mode of at least three experiments) | MIC (E. coli ATCC 25922 [1]; Mueller Hinton, 5x10^6 CFU/mL, 18 h, 37 °C, mode of at least three experiments) | MIC (E. coli ATCC 25922 [1]; supplemented M9 medium, 5 × 10^6 CFU/mL, 18 h, 37 °C, visual, mode of at least three experiments) | MIC (E. coli ATCC 25922 [1]; Escherichia coli, ATCC25922, 18 h, Mueller Hinton, 2,5x10^5 CFU/mL, 18 h, 37 °C, mode of at least three experiments) | MIC (E. coli ATCC 25922 [1]; Escherichia coli, ATCC25922, 18 h, Mueller Hinton, 5x10^6 CFU/mL, 18 h, 37 °C, mode of at least three experiments) | MIC (E. coli ATCC 25922 [1]; [5]) | Fold increase in MIC on 20-fold increase in cell density (E. coli ATCC 25922 [1]; MHB, 5×10^6 vs 2,5×10^5 CFU/well) | Membrane permeabilization (% PI +cells) (E. coli ATCC 25922 [2]; listed as Chloramphenicol) | Membrane permeabilization (% PI +cells) (E. coli ATCC 25922 [2]; listed as Rifampin)
1 | RRIRPRPPRLPRPRPRPLPFPRPGPRPIPRPLPFP [Bac7(1–35)] | 1 µM | <1% | 3 h | 2.9 ± 0.5 h | – | – | – | – | – | – | – | – | –
2 | RRIRPRPPRLPRPRPR [Bac7(1–16)] | – | <1% | – | 1.7 ± 0.9 h | 1 µM | 2 µM | 1 µM | – | – | – | – | – | –
3 | O=C(N[C@H](CO)[C@H](O)c1ccc([N+](=O)[O-])cc1)C(Cl)Cl [CHL, Chloramphenicol] | – | <1% | about half an hour | 0.6 ± 1.2 h | – | – | – | 16 µM (≈ 5.17 µg/mL) | 64 µM (≈ 20.7 µg/mL) | 32 µM (≈ 10.3 µg/mL) | 4-8 fold | 0% | –
4 | CO[C@H]1/C=C/O[C@@]2(C)Oc3c(C)c(O)c4c(O)c(c(/C=N/N5CCN(C)CC5)c(O)c4c3C2=O)NC(=O)/C(C)=C\C=C\[C@H](C)[C@H](O)[C@@H](C)[C@@H](O)[C@@H](C)[C@H](OC(C)=O)[C@@H]1C [RIF, Rifampicin] | – | <1% | – | 1.6 ± 1.1 h | – | – | – | – | – | 2 µM (≈ 1.65 µg/mL) | – | – | 0%
